Assay results from patent US20020052365A1, “Selective anxiolytic therapeutic agents” (priority 2000, published 2002).
“Also recorded” adds a separate entry of the source.

Assays:
[1] = tested on: wild type, α2(H101R) and α3(H126R) mice; test: Light/dark choice test; assay type: in vivo, mouse; conditions: for time in the lit area: sodium phenobarbital 15 mg/kg s.c., n=6-8
Description: (§1) FIG. 4A: Light/dark choice test. […] FIGS. 4B-C: Elevated plus-maze. […] FIG. 4D: Light/dark choice test. […] FIGS. 4E-F: Elevated plus-maze. […] Results are given as means ±S.E.M.+, P<0.05;++, P<0.01;+++P<0.001 (Dunnett's or Fisher's pair-wise post-hoc comparisons or Fisher's exact tests). […] The light-dark choice test was carried out as described infra with an illumination of 500 lux. […] The elevated plus-maze was performed as described infra under an indirect dim light illumination (<10 lux).
In a chamber containing an interconnected dark and lit (500 lux) box, the behavior of wild-type and mutant mice was tested for 5 min following the first entry into the dark compartment. […] The time spent in the lit box was recorded.
(§2) Female wild-type and mutant mice were raised in the test rooms and behaviorally tested during the dark period of the 1 2-hr light/dark cycle.

[2] = target: diazepam-insensitive [3H]Ro15-4513 binding sites (α4 and α6 GABAA receptors); test: [3H]Ro15-4513 binding to diazepam-insensitive sites, wild type mouse brain; conditions: n=3
[3] = target: diazepam-insensitive [3H]Ro15-4513 binding sites in α2(H101R) mice; test: [3H]Ro15-4513 binding to diazepam-insensitive sites, α2(H101R) mouse brain; conditions: n=3
[4] = tested on: GABAA receptors in hippocampal pyramidal cells from α2(H101R) mice; test: Patch-clamp GABA responses in cultured hippocampal pyramidal cells, α2(H101R); assay type: cell-based, mouse
Description: (§3) FIGS. 2A-C. […] The holding potential in the patch-clamp analysis was −60 mV the chloride concentration symmetrical. GABA was applied for 5 sec. Hippocampal neurons from E16.5 embryos were cultured for 10-14 days.

[5] = tested on: recombinant α2(H101R)β3γ2 receptors; conditions: recombinant α2(H101R)β3γ2 in HEK-293 cells; cited from earlier work
[6] = target: diazepam-insensitive [3H]Ro15-4513 binding sites in α3(H126R) mice; test: [3H]Ro15-4513 binding to diazepam-insensitive sites, α3(H126R) mouse brain; conditions: n=3
[7] = tested on: GABAA receptors in hippocampal pyramidal cells from wild type mice; test: Patch-clamp GABA responses in cultured hippocampal pyramidal cells, wild type; assay type: cell-based, mouse
Description: as §3

[8] = tested on: wild type, α2(H101R) and α3(H126R) mice; test: Elevated plus-maze; assay type: in vivo, mouse; conditions: diazepam 2 mg/kg p.o.
Description: as §1
Mice were placed on an elevated crossbar with two walled and two open arms under indirect dim illumination. […] The time spent on the open arms and the number of open arm entries was recorded for 5 minutes.
as §2

[9] = target: T1, α3 subunits from α3(H126R) mice (Mus musculus, UniProt P22723+P26049, H154R); test: Diazepam affinity by [3H]Ro15-4513 binding after immunoprecipitation with α3 subunit-specific antiserum; conditions: immunoprecipitated
T1 construct: from tissue; host or cells: brain of α3(H126R) knock-in mice
T1 sequence (P26049 29-492 H154R): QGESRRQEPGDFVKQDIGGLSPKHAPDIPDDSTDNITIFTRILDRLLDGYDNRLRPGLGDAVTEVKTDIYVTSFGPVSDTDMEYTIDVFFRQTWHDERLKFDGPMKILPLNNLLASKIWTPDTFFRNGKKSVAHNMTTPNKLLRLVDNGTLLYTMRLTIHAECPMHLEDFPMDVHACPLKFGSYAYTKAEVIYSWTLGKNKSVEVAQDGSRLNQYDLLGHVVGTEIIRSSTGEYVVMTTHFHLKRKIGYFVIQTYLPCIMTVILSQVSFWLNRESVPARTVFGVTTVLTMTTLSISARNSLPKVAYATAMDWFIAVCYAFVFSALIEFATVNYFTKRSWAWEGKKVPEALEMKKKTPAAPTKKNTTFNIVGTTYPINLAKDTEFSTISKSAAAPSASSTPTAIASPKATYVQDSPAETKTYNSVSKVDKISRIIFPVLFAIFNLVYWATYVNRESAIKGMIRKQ
T1 sequence (P22723 39-474): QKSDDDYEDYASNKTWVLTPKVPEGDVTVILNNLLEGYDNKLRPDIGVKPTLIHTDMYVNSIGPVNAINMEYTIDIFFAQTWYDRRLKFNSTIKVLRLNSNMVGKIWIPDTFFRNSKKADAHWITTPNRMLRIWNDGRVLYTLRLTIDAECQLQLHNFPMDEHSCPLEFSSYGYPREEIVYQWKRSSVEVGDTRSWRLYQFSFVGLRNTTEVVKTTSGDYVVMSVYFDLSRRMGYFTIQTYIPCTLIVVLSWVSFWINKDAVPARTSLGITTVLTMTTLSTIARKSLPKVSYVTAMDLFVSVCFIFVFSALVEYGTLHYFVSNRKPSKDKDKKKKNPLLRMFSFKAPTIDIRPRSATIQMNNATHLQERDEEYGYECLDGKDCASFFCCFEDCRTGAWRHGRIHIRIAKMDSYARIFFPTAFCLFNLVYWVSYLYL
T1 sequence (P63080 26-473 partner): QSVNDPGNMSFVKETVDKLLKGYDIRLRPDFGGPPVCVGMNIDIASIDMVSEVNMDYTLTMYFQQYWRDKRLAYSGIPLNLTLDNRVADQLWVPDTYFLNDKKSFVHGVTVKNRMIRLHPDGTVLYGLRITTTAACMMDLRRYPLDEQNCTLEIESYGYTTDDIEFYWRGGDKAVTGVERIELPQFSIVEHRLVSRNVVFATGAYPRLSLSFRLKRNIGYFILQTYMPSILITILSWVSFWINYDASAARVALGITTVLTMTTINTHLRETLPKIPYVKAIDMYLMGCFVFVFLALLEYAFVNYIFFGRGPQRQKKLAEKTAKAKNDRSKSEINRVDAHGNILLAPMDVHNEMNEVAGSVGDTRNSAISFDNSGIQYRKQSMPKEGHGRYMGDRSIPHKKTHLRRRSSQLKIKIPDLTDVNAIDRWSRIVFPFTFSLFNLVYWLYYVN
Description: (§4) To distinguish between the pharmacology of α2 and α3 receptor subtypes, two mouse lines were generated in which a point mutation was introduced into homologous positions of the α2 subunit gene [α2(H101R)]

[10] = target: T2, α2 subunits from α2(H101R) mice (Mus musculus, UniProt P22723+P26048, H129R); test: Diazepam affinity by [3H]Ro15-4513 binding after immunoprecipitation with α2 subunit-specific antiserum; conditions: immunoprecipitated
T2 construct: from tissue; host or cells: brain of α2(H101R) knock-in mice
T2 sequence (P26048 29-451 H129R): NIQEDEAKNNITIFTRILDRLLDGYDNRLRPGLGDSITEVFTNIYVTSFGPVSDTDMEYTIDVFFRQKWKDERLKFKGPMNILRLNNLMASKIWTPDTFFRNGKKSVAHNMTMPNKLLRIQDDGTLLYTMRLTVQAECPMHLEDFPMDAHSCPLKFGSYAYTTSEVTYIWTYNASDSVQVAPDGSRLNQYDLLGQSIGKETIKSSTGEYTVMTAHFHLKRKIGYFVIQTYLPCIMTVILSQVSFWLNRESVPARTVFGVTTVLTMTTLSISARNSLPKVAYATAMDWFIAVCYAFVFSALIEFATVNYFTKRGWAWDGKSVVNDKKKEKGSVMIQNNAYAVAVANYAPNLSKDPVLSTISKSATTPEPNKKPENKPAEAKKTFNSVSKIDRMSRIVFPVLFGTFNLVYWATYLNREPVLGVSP
T2 sequence (P22723 39-474): as the sequence (P22723 39-474) above
T2 sequence (P63080 26-473 partner): as the sequence (P63080 26-473 partner) above
Description: as §4

[11] = tested on: wild type, α2(H101R) and α3(H126R) mice; test: Pentylenetetrazole test; assay type: in vivo, mouse; conditions: pentylenetetrazole 120 mg/kg ip, diazepam 3, 10, 30 mg/kg p.o.
Description: (§5) V, vehicle. […] 31:733. Locomotor activity was automatically recorded for 30 min.
Following pentylenetetrazole treatment (120 mg/kg ip), occurrence and/or latency to tonic seizures was recorded for a maximum of 10 minutes in wild type and mutant mice. […].

[12] = tested on: wild type and α1-GABAA receptor (H101R) mice; test: Withdrawal after chronic diazepam and flumazenil administration; conditions: chronic diazepam then flumazenil
[13] = tested on: wild type, α2(H101R) and α3(H126R) mice; test: Locomotor activity; assay type: in vivo, mouse; conditions: diazepam 3, 10, 30 mg/kg p.o., 30 min prior
Description: as §5

CCC1(c2ccccc2)C(=O)NC(=O)NC1=O [phenobarbital, Sodium phenobarbital]
time in the lit area ([1]; wild type mice): 111.75 s | time in the lit area ([1]; α2(H101R) mice): 110.9 s

CCOC(=O)c1ncn2c1CN(C)C(=O)c1cc(N=[N+]=[N-])ccc1-2 [Ro15-4513]
Kd ([2]; α2 wild type controls): 4.3 ± 0.8 nM | Kd ([2]; α3 wild type controls): 4.9 ± 2.1 nM | Kd [3]: 8 ± 1.3 nM | modulation of GABA response by Ro15-4513 (agonistic response) ([4]; Ro15-4513 1μM, n=23): 11.7±7.5% | efficacy of Ro15-4513 [5]: from inverse agonism to agonism | Kd [6]: 6.5 ± 1.6 nM | modulation of GABA response by Ro15-4513 (inverse agonistic action) ([7]; Ro15-4513 1μM, n=13): −39±5.2%

CN1C(=O)CN=C(c2ccccc2)c2cc(Cl)ccc21 [diazepam]
entries on the open arms ([8]; wild type mice): increased | percentage of time spent on the open arms ([8]; wild type mice): increased | entries on the open arms ([8]; α2(H101R) mice): failed to increase | percentage of time spent on the open arms ([8]; α2(H101R) mice): failed to increase | entries on the open arms ([8]; α3(H126R) mice): increased | percentage of time spent on the open arms ([8]; α3(H126R) mice): increased | decrease in the affinity for diazepam [9]: more than 1,000 fold | potentiation of GABA response by diazepam ([4]; diazepam 1μM, GABA 3 μM, n=29): 17.6±4.5% | decrease in the affinity for diazepam [10]: more than 1,000 fold | percentage of mice developing tonic convulsions (anticonvulsant action) ([11]; wild type mice): Dose-dependent decrease of the percentage of mice developing tonic convulsions | percentage of mice developing tonic convulsions (anticonvulsant action) ([11]; α2(H101R) mice): not impaired; also recorded: Dose-dependent decrease of the percentage of mice developing tonic convulsions | percentage of mice developing tonic convulsions (anticonvulsant action) ([11]; α3(H126R) mice): not impaired; also recorded: Dose-dependent decrease of the percentage of mice developing tonic convulsions | withdrawal symptoms (locomotor activity) ([12]; wild type mice): exhibited withdrawal symptoms | withdrawal symptoms (locomotor activity) ([12]; α1-GABAA receptor (H101R) mice): greatly reduced | locomotor activity (sedative action) [13]: Dose-dependent inhibition of locomotor activity | time spent in the lit area ([1]; wild type mice, diazepam 0.5, 1, 2 mg/kg p.o.): dose-dependently increased the time spent in the lit area | time spent in the lit area ([1]; α2(H101R) mice, diazepam up to 2 mg/kg p.o.): did not increase the time spent in the lit area | time spent in the lit area ([1]; α3(H126R) mice, diazepam 0.5, 1, 2 mg/kg p.o.): Dose-dependent increase in the time spent in the lit area | potentiation of GABA response by diazepam ([7]; diazepam 1μM, GABA 3 μM, n=18): 48.1±7.9%
